For data set [1], the target named is 5-HT7 (Homo sapiens (Human), UniProt P34969). Nature of the data set: 5-HT7 binding. An excerpt: (§1) Further, the compounds of the invention may be tested in binding assays and functional activity assays by well known methods for other physiologically important receptors such as, but not limited to, the hERG channel, other serotonin receptors (specifically 5-HT1B, 5-HT1D, receptors, lack of agonist activity at 5-HT2B receptors, 5-HT2C, 5-HT5, 5-HT6, and 5-HT7 receptors), dopaminergic receptors (specifically D1, D2, and D3), GABAA receptors, adrenergic receptors and monoamine transporters.

The target in data set [2] is 5-HT6 (Homo sapiens (Human), UniProt P50406). The experiment in a line: 5-HT6 binding.
Excerpt: as §1

In data set [3] the target is recombinant 5-HT2A receptor (human) (Homo sapiens (Human), UniProt P28223). Nature of the data set: 5-HT2A competition binding assay ([3H]-Ketanserin, SPA). The following applies: dihydrochloride.
Description: [^3H]-Ketanserin binding experiments are carried out in SPA 96-well format. Membranes used in this assay are prepared from AV-12 cells stably expressing recombinant 5-HT2A receptor (human). The incubation is initiated by the addition of a mixture of WGA YSi SPA beads (1 mg/well, Perkin Elmer (MA, USA), RPNQ0011) and 2 μg membranes to assay buffer (67 mM Tris, 0.5 mM EDTA; pH 7.6) containing 3.1 nM [^3H]-Ketanserin and varying concentrations of the test compound (10 point concentration response curves). Non-specific binding is determined in the presence of 20 μM 1-(1-Naphthyl) piperazine. Samples are incubated for 4 hr. at room temperature (22° C.) and then read in a Microbeta Trilux.
Curves are evaluated using a 4-parameter logistic nonlinear equation to obtain the concentration of competitor causing 50% inhibition of radioligand binding (IC50). Equilibrium dissociation constants (Ki) are calculated according to the equation Ki=IC50/(1+L/Kd), where L equals the concentration of radioligand used in the experiment and Kd equals the equilibrium dissociation constant of the radioligand for the receptor, determined from standard saturation analysis or homologous competition experiments. Reported values for Ki, where n values are indicated, are shown as geometric mean±the standard error of the mean (SEM), with the number of replicate determinations indicated by n. […]
For data set [4], the target named is hERG channel (Homo sapiens (Human), UniProt Q12809). Nature of the data set: hERG channel assay.
Excerpt: as §1
(The hERG channel carries a current that helps repolarise heart muscle cells.)

The target of data set [5] is Dopamine D1 (Homo sapiens (Human), UniProt P21728). The experiment in a line: Dopamine D1 binding.
Excerpt: as §1

The term Ki denotes a measure of affinity in units of concentration, obtained from inhibition or displacement.

Counter-ions that a name gives are not always drawn. Where only a bound is given, the exact number is not on record here.

Sequence of 5-HT7 (P34969 whole entry, species assumed): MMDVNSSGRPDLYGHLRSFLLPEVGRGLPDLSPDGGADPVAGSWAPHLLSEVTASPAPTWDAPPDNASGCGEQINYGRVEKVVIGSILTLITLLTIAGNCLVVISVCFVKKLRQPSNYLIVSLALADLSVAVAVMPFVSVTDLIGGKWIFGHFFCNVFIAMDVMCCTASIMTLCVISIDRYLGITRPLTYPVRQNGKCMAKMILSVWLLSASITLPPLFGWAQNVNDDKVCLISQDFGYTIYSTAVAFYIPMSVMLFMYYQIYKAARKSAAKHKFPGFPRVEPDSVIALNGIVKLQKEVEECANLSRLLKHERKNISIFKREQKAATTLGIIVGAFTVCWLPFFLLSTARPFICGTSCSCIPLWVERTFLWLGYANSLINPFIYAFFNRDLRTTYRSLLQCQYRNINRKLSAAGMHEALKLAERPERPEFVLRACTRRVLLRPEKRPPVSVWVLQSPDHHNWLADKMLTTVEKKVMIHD
Sequence of hERG channel (Q12809 whole entry): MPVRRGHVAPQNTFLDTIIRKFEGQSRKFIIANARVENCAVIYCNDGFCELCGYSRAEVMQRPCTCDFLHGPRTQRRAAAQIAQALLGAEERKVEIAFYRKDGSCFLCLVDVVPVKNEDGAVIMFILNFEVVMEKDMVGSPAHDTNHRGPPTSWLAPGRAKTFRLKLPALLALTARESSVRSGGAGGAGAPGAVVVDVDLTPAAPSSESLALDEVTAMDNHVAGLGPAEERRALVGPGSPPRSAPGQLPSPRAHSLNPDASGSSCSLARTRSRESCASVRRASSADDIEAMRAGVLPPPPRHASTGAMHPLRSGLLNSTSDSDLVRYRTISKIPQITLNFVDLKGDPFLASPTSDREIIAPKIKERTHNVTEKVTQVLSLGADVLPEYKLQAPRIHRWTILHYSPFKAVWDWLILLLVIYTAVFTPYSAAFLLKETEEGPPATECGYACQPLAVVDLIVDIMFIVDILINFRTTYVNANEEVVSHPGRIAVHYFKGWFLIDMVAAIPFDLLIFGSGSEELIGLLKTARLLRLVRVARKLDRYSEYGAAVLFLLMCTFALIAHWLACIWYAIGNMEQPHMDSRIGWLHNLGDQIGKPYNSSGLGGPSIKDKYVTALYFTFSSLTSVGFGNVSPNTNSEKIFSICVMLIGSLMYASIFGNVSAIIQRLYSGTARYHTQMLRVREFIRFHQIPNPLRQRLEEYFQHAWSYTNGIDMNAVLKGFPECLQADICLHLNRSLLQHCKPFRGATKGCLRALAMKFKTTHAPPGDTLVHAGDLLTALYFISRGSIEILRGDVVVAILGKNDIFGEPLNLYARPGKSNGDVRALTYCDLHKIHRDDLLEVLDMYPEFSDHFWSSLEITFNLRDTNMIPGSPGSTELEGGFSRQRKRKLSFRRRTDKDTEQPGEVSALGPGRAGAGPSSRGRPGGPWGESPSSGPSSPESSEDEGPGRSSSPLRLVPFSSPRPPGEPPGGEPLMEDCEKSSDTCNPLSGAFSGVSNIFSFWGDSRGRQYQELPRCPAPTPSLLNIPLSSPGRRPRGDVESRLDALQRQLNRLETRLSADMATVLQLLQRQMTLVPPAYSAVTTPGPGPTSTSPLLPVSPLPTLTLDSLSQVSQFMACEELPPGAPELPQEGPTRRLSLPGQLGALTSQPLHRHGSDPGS
Sequence of 5-HT6 (P50406 whole entry, species assumed): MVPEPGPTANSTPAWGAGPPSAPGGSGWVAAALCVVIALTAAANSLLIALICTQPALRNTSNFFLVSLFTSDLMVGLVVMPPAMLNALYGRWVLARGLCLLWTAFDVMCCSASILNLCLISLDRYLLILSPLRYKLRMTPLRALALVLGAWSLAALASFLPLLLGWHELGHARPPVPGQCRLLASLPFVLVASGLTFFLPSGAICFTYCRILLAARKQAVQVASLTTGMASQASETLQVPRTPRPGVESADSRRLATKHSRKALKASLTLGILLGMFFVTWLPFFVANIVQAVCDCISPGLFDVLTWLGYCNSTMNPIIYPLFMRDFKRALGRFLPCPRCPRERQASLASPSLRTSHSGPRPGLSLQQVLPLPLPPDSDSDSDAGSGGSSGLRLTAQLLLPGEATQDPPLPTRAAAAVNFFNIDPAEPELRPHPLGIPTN
Sequence of Dopamine D1 (P21728 whole entry): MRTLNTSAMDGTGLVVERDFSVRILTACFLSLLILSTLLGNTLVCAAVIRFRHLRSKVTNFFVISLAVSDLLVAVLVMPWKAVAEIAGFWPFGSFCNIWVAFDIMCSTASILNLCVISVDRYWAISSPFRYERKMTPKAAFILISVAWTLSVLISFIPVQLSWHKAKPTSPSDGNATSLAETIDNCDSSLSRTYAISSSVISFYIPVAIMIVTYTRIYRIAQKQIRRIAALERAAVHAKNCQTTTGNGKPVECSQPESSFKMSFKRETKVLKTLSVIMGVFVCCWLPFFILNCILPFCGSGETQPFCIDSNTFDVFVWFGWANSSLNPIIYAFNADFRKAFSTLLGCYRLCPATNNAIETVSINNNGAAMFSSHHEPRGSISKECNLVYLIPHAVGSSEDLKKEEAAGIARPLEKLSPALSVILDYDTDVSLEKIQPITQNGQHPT

For the molecule `Cc1ccc2c(c1)Oc1sc(Cl)cc1C(N1CCN(CC(C)(C)C(=O)O)CC1)=N2` [Example 3, 3-[4-(2-chloro-8-methyl-thieno[2,3-b][1,5]benzoxazepin-4-yl)piperazin-1-yl]-2,2-dimethyl-propanoic acid dihydrochloride], the Ki is above 2060 nM in data set [1], above 5.83 µM in data set [2], 7.01 nM in data set [3] and 592 nM in data set [5]. The “hERG Channel” value in data set [4] is above 100 µM.

Source of the values: patent publication US9481688B2, “(Thieno[2,3-b][1,5]benzoxazepin-4-yl)piperazin-1-yl compounds as dual activity H1 inverse agonists/5-HT2A antagonists” (Eli Lilly and Company, priority 2011, dated 2016).
